Tested on: S. cerevisiae tim23-1 mutant growth, luminescence
Assay: potency against tim23-1 yeast growth – luminescence, uHTS hits, dose response (AID 493002);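 also: yeast grown roughly 22 hours at 25 °C before the luminescence read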

Compound	IC50 [µM]
O=C(/C=C/c1ccccc1)Oc1cccc2cccnc12	21.3
Nc1ccc(O)c2c1C(=O)c1ccccc1C2=O	11.3
O=C(Nc1nsc(-c2ccccc2)n1)c1cccs1	8.04
O=C(c1ccccc1)N1N=C(c2cccs2)CC1c1ccccc1O (configuration not stated)	22.8
CO/C(N)=C(\C#N)N=Cc1ccccc1Cl	8.6
c1ccc(N=Nc2cn[nH]c2-c2ccco2)cc1	11.3
Cc1ccc2oc(C(Cl)(Cl)Cl)cc(=O)c2c1	4.38
O=C(Nc1ccc(Oc2cccc3ccccc23)cc1)c1ccco1	8.33
Cc1csc2nc(O)c(C(=O)NCCC3=CCCCC3)c(=O)n12	4.88
COc1ccc(/C=C/C(=O)Nc2ccc3c(c2)CCC3)cc1OC	8.81
Fc1ccccc1-c1cc2cc3c(cc2cn1)OCO3	16.1
COc1ccc(S(=O)(=O)NCc2ccc(C)cc2)cc1	20.5
COc1ccc2oc(/C=C/N(C)C)c(C(=O)c3ccc(Cl)cc3)c2c1	15
Cn1cccc1-c1nc2ccc(NC(=O)c3cccs3)cc2[nH]1	10.8
CC(C)(C)N1C(=O)c2ccc(C(=O)Nc3nccs3)cc2C1=O	20.3
O=C(Nc1ncc([N+](=O)[O-])s1)c1ccc2c(c1)OCO2	17.6
Oc1ccc(-c2csc(Nc3ccccn3)n2)c(O)c1	24.9
Cc1ccc(Nc2nc(Cl)c(C=O)s2)cc1Cl	5.76
CCC(C)NC(=O)c1c(N)n(CCCOC)c2nc3ccccc3nc12 (configuration not stated)	14.1
Cc1cccc(C(=O)OCC(=O)NC23CC4CC(CC(C4)C2)C3)c1O	12.5
CCc1cccc2c(C(=O)CCl)c[nH]c12	9.27
NC(=S)NNc1cc(Cl)cc(Cl)c1	10.5
Cc1cc(=O)oc2c1c(C(F)(F)F)nn2-c1ccccc1	7.85
Cc1cccc(NC(=O)c2cc3ccccc3o2)c1	13
COC(=O)c1ccc(C(=O)OC)c(NC(=O)CSc2cccc[n+]2[O-])c1	4.4

Compound	IC50 [µM]
Cc1ccc(C(=O)Nc2nc(C(C)(C)C)cs2)s1	13.6
NC(=O)c1c(NC(=O)c2ccccc2F)sc2c1CCCC2	38.3
CCn1c(N2CCN(S(=O)(=O)c3ccc(OC)cc3)CC2)nc2ccccc21	8.88
Cc1csc2nc(O)c(C(=O)NC3CCCCC3C)c(=O)n12 (configuration not stated)	12.2
Cc1nc2c(n1C1CCCCC1)C(=O)c1ccccc1C2=O	10.8
O=c1c2ccccc2[nH]c(=S)n1CCN1CCC(=C(c2ccc(F)cc2)c2ccc(F)cc2)CC1	5.44
CC(C)OC(=O)c1cccnc1SCc1cc(=O)n2ccccc2n1	9.68
COc1ccc(C(C[N+](=O)[O-])c2c(C)[nH]n(-c3ccccc3)c2=O)cc1 (configuration not stated)	7.55
CC(=O)Nc1ccc(S(=O)(=O)N(Cc2cccnc2)Cc2cc3ccc(C)cc3[nH]c2=O)cc1	23.1
Nc1nc(Nc2ccccc2)sc1C(=O)c1ccccc1	21
CN(C)c1c2ccccc2nc2c(F)c(F)c(F)c(F)c12	16.6
Cc1ccc(Nc2nc3ccccc3s2)c(C)c1	11.1
Cc1occc1C(=O)N/N=C/C(Br)=C/c1ccccc1	9.06
CCCCCOC(=O)Cc1c(C)nc(-c2ccccc2)[nH]c1=O	13.2
Cc1ccc2occ(C(=O)c3ccco3)c(=O)c2c1	9.16
CCCN(C(=O)c1ccc([N+](=O)[O-])c(C)c1)c1c(N)n(Cc2ccccc2)c(=O)[nH]c1=O	5.69
O=C(/C=C/c1ccccc1)NCCc1c[nH]c2ccccc12	15
Cc1cc(C(=O)COC(=O)c2ccc([N+](=O)[O-])o2)c(C)n1CC1CCCO1 (configuration not stated)	10.1
Cn1c(/C(C#N)=C/c2ccncc2)nc2ccccc21	16.3
Cc1cnc(NC(=O)c2sc(Nc3ccccc3)nc2N)o1	9.39
COc1ccc(O)c(-c2cc(-c3cccs3)[nH]n2)c1	12.4
CCOC(=O)c1cccc(NC(=O)c2cc3ccccc3o2)c1	14.3
O=C(/C=C\Nc1cccc(F)c1)c1cccs1	7.31
CCC(C)c1ccc(NC(=O)COC(=O)C2CCCC2)cc1 (configuration not stated)	10.7
Cc1[nH][nH]c(=O)c1C(c1ccc(-c2ccc(Cl)cc2)o1)c1c(C)[nH][nH]c1=O	12.8

Compound	IC50 [µM]
COc1ccc(OCC(=O)Nc2ccc3c(c2)CCC3)cc1	15.6
O=C(c1ccc(-c2nc3ccccc3s2)s1)N1CCOCC1	19.2
Cc1ccc(O)c(N=Cc2cc(Cc3ccccc3)cc([N+](=O)[O-])c2O)c1	10.6
O=S1(=O)N[C@@H](Cc2ccccc2)COc2cc(Br)ccc21	18.4
c1ccc(-c2ncc(-c3ccn[nH]3)s2)cc1	5.97
COc1ccc(N2CCN(c3nc4cc(C)ccc4cc3C=O)CC2)cc1	24.9
CC(=O)Nc1ncnc2c1c(-c1ccc(Cl)cc1)nn2C(C)(C)C	10
O=C1NC(=S)SC1=C1CCCCCC1	7.78
Cc1ccc2c(c1)COc1c3ccc(C(=O)NC(C)C)cc3nn1-2	24
O=C(/C=C/c1ccccc1)Nc1ccc2c(c1)OCCO2	11.7
COc1ccc2c(c1)-c1nc(NC(=O)c3cccs3)sc1CC2	21.7
Cc1occc1C(=O)N/N=C/C(Br)=C\c1ccccc1	13.7
O=C1/C(=C/c2cccs2)COc2ccccc21	8.37
COc1cc(C(=O)N/N=C/c2coc3ccc(Cl)cc3c2=O)ccc1O	4.34
Cc1[nH]c2ccccc2c1C(=O)/C=C/c1ccccc1	9.05
CCOC(=O)c1cccc(OC(=O)CCNC(=O)c2ccc(Cl)cc2)c1	13.1
O=C(N/N=C/c1ccc(Br)s1)c1cccs1	9.05
COc1cccc2c1C(=O)C=C(C)C2=O	5.32
CC1(C)CC(=O)C=C(c2cccc(Cl)c2O)C1	8.1
CC1CCN(c2ccc(-c3cccs3)nn2)CC1	6.21
O=Cc1cnc2ccccc2c1-c1ccccc1	6.97
CC(C)(C)c1csc(NC(=O)c2ccc(Cl)s2)n1	4.07
Cn1c(=O)c(C(=O)Nc2ccccn2)c(O)c2ccccc21	15.2
O=C(NC1CCCCC1)c1c(O)nc2sccn2c1=O	16.4
O=C(Nc1ccc2nc(-c3ccc(Br)o3)[nH]c2c1)c1cccs1	1.35

Compound	IC50 [µM]
O=C1/C(=C/c2ccncc2)SC(=S)N1C1CCCCC1	5.72
O=C(Nc1oc2ccc(Cl)cc2c(=O)c1-c1ccc(F)cc1)c1ccco1	17.1
Cc1nc2ccccc2n1/N=C/c1ccc([N+](=O)[O-])s1	1.58
O=C(Nc1ccc2c(c1)OCCO2)c1cccc(Br)c1	14.5
COc1ccc2c(=O)c3c(=O)n(Cc4ccco4)c(-c4ccccc4)nc3oc2c1	17.5
CC1(C)c2cc(Cl)ccc2-n2c1cc(O)c(-c1ccccc1)c2=O	11.9
COc1cc(/C=C/C(=O)OCC(=O)c2ccc(OC(F)F)cc2)ccc1O	14.6
COc1ccc(NC(=O)Nc2cccc3cccnc23)cc1	40.1
CCOC(=O)c1ccc(NC(=O)CSc2nc(=O)n3cccc(C)c3n2)cc1	13
C=CCN=c1scc(-c2ccco2)n1/N=C/c1ccc(O)c(O)c1O	16.1
COc1cc(/C=C/[N+](=O)[O-])ccc1OC(=O)c1cc2ccccc2oc1=O	4.02
N#C/C(=C\c1ccc(OCc2ccccc2)cc1)C(N)=O	11.7
COc1ccc(-c2nc3ccccc3[nH]2)cc1	18
Cc1csc2nc(O)c(C(=O)NC3CCCCC3)c(=O)n12	8.51
CC(C)CN1C(=O)c2ccc(NC(=O)c3ccco3)cc2C1=O	20.2
O=C(CSc1cccs1)Nc1ccc2ccccc2c1	12.2
CCCn1nnc(NC(=O)c2sc3ccccc3c2Cl)n1	20.7
CCSc1ncc(/C=N/Nc2ccc(Cl)cc2)n1C	5.9
Cc1cc(Nc2ccccc2)nn1C(=O)c1ccccc1	12
O=C(c1cc(-c2ccc(O)cc2)on1)N1CCc2ccccc2C1	8.85
Cc1ccc(NC(=O)c2ccc3c(c2)OCCO3)cc1C	13
O=c1c2ccccc2nc2c3ccccc3cnn12	15
Cc1ccc(Nc2nc(-c3sc(N)nc3C)cs2)cc1	13.4
N#C/C(=C\c1cc(Cl)cc(Cl)c1O)C(=O)NC1CCCCC1	10
COc1cccc(CNn2c(-c3cccc(C)c3)nc3ccccc3c2=O)c1O	10.1

Compound	IC50 [µM]
CCc1sc(C(=O)Nc2ccc3c(c2)OCO3)cc1C	19.2
C[C@@]12C(=O)Nc3ccc(Cl)cc3C(=O)N1[C@H]1c3ccccc3OC[C@@H]1[C@@H]2c1ccccc1	3.38
O=C(N/N=C/c1coc2ccc(Cl)cc2c1=O)c1cc(O)cc(O)c1	5.83
O=C(NC(=S)NC(=O)c1ccccc1F)c1ccccc1F	6.11
CCN(CC)S(=O)(=O)c1ccc(C(=O)OCn2nnc3ccccc3c2=O)cc1	9.32
O=C1Nc2ccccc2/C1=C/c1ccccc1Cl	7.21
O=C(Nc1cc(-c2ccccc2)[nH]n1)c1ccccc1F	20.2
O=C(Nc1ccc(-c2cn3ccccc3n2)cc1)c1cccs1	2.92
O=C(/C=C/c1ccccc1Cl)Nc1ccccc1	12.2
O=C(Nc1ccccc1N(C(=O)c1ccco1)S(=O)(=O)c1cccs1)c1ccco1	9.78
CCc1ccc(NC(=O)/C(C#N)=C/c2ccncc2)cc1	4.41
COc1ccc(N2CCC(CNC(=S)Nc3ccc(C)cc3C)C2)cc1 (configuration not stated)	7.54
O=C(CSc1ccccc1)N/N=C/c1ccccc1O	27.5
CN1C(=O)/C(=C\c2ccco2)N=C1c1ccc(Cl)cc1Cl	12.8
CC1CCN(C(=O)c2ccc3c(c2)NC(=O)/C(=C/c2ccccc2)S3)CC1	13.6
COc1ccc2c(=O)c3c(=O)n(Cc4ccco4)c(-c4ccc(C)cc4)nc3oc2c1	20
CCCCn1c(N)c(N(CCC(C)C)C(=O)c2ccc3c(c2)OCO3)c(=O)[nH]c1=O	11.1
Oc1ccc2ccccc2c1/C=N/c1nccs1	10.4
Cc1ccc(NC(=S)NC(=O)C2CC2)cc1Cl	6.85
COc1ccc(NC(=O)Nc2nc3c(s2)CCCC3)cc1	7.73
Cc1ccc2occ(/C=N/NC(=O)c3ccncc3)c(=O)c2c1	21.6
O=C(Nc1ccc2c(c1)OCCO2)c1cccc(Cl)c1	11.6
